{"source": "patent US20230081357A1", "about": "“TOPICAL COMPOSITION COMPRISING CANNABIDIOL” (CURALEAF INTERNATIONAL LIMITED, priority 2020, published 2023)", "key": {"[1]": {"tested_on": "transfected rat basophil cells (RBL-2H3 ATCC® CRL-2256™) expressing the IgE human receptor (FcRI)", "experiment": "Anti-itch activity: basophil degranulation, β-hexosaminidase release", "format": "cell-based", "conditions": "for % degranulation inhibition: basophils activated with anti-IgE receptor", "source_text": "In vivo, a basophil cell degranulation mediated by IgE triggers an immediate allergic reaction characterized by the quick release of pre-stored inflammatory mediators (histamine, leukotrienes, thromboxane, basophilic enzymes, hexosaminidases), causing redness, rashes, itchiness and local inflammatory reactions. The ability of a composition to inhibit the degranulation of basophil cells is an indicator of its capability to inhibit the above described symptoms and above them mainly itching.\nThe test is carried out on a cell line of transfected rat basophil cells (RBL-2H3 ATCC® CRL-2256™) expressing the IgE human receptor (FcRI). Cells are kept in RPMI containing 10% FCS and 2 mM glutamine.\nUntreated cells were used as negative control for the spontaneous degranulation.\nA positive control consisting in cells exposed to anti-human IgE receptor antibodies was used to evaluate the maximal degranulation level.\nCell lysates in 1% Triton were also analyzed in order to evaluate the highest possible release of the analyzed molecules.\nThe release of β-hexosaminidase during degranulation was monitored on RBL-SX38 cell supernatant added with […]-N-acetyl-β-D-glucosamine (Sigma-Aldrich) in 0.1 M citrate buffer (pH 6.2) and incubated at 37° C. for 120 min. The reaction was terminated using 0.1M carbonate buffer (pH 10), and the absorbance was read at 405 nm (OD405).\nThe supernatant of untreated cells was used as negative control. The maximal stimulation of RBL-SX38 was evaluated on a 1% Triton X-100 lysate of the cell monolayer.\nSodium hyaluronate in serial dilutions, as indicated in the following Table 11, was also used as a control of the inhibition of basophil degranulation.\nThe inhibition degranulation percentage of activated basophil with IgE receptor has been calculated with the following formula: […]"}, "[2]": {"experiment": "In vitro soothing efficacy, cell viability by MTT after SLS", "format": "cell-based", "conditions": "human; read-out: % mean cell viability (standard deviation)", "method": "(§1) The assay assessed quantitatively the effects of the sample in protecting skin cells and in inhibiting the […] reaction caused by moderate irritating agents as sodium lauryl sulfate (SLS) by means of a multilayer in vitro skin cell model.\n(§2) The inhibition of the SLS-induced release of IL-1α cytokine was investigated (through specific ELISA assay) following exposure to the tested substance and respect to skin untreated samples. Cell viability was determined by the MTT assay.\n(§3) Both assays used a reconstructed artificial human skin model comprising normal human epidermal keratinocytes, growing as an integrated three-dimensional cell culture model, perfectly mimicking the human skin in vitro. […] The model was supplied by Episkin (Lion, Batch 20-RHE-041).\nEpidermis was treated for 70 minutes with SLS at 0.30% in order to induce IL-1α synthesis and release. […] As negative control, two epidermis units were treated with phosphate buffer, while epidermis units treated for 70 minutes with SLS 0.30% were used as positive control. […]\nEpidermis units were treated with 1 mg/ml MTT solution (3-[4,5-dimethylthiazol-2-yl]-2,5-diphenyl tetrazolium bromide) for 3 h at 37° C. […] Two aliquots of every sample were transferred to a 96 well plate for the reading. The absorbance (OD) was read at the wavelength of 570 nm with a colorimeter (Tecan model Infinite F200) equipped with a microplate reader. […]"}, "[3]": {"tested_on": "IL-1α", "experiment": "Particulate (PM2.5) resistance test, IL-1α release by ELISA", "format": "cell-based, human", "conditions": "sample alone, 24 h at 37° C.; 30 μl CBD-S5, 30 μl SDS 5% or 20 μg PM2.5; untreated RHE (NC) = 100%", "method": "After incubation at 37° C. for 24 h in a controlled atmosphere of 5% CO2, the cell viability of the RHE sample was assessed by MTT assay, as described in Example 5A, while the culture medium was collected and analyzed for IL-1α release by ELISA assay, using an EMIL1ALPHA kit (Invitrogen-Thermo Scientific) with the following procedure.\n100 μl of medium from each treatment was transferred to wells coated with anti-human IL-1α and incubated for 2 hours at room temperature. At the end of the incubation, the medium was removed and the wells were washed 4 times with 1× Wash Buffer. 100 μl of biotinylated antibody was added to each well and incubated for 1 hour at room temperature. At the end, the wells were washed 4 times with 1× Wash Buffer, treated with 100 μl of Streptavidin-HRP solution for 45 minutes at room temperature and finally washed 4 times with 1× Wash Buffer. 100 μl of TMB substrate was added to each well and incubated for 10 minutes in the dark. Finally, 100 μl of stop solution was added to each well and spectrophotometric readings were taken at wavelengths of 450 nm and 550 nm using the μQUANT BIO TEK Microplate Spectrophotometer instrument.\nChanges in IL-1α levels released from the RHE tissue after each treatment were expressed as % values compared to the untreated RHE (NC) used as control (100%)."}, "[4]": {"tested_on": "reconstituted human epidermis (RHE)", "experiment": "In vitro irritation test on reconstituted human epidermis, MTT cell viability", "format": "cell-based", "conditions": "60 minutes treatment, 24 hours incubation, % of negative control, 25 μg CBD-S5 or 30 μL 5% SDS", "method": "The in vitro test consists of a topical exposure of the test substance on reconstituted human epidermis (RHE) followed by a cell viability test.\nCell viability is determined by the conversion of MTT (3-(4,5-dimethylthiazol-2-yl)-2,5-diphenyltetrazolium bromide) to a formazan blue salt, which is quantitatively measured after extraction from tissue. Conversion occurs via the mitochondrial enzyme succinate dehydrogenase, which is only active in living cells, causing the MTT tetrazole ring to open and formazan to form. Assessment of the viability of tissues exposed to the test substance compared to the negative control (treated with Dulbecco's phosphate buffered saline—DPBS) and the positive control (treated with sodium dodecyl sulphate—SDS) is used to predict skin irritation potential.\nThe reconstructed human epidermis model consists of normal human-derived epidermal keratinocytes cultured to recreate a highly differentiated multilayered human epidermis. […]\nThe optical density of the extracted formazan is determined spectrophotometrically at a wavelength of 570 nm using the μQUANT BIO TEK Microplate Spectrophotometer. Relative cell viability is calculated for each tissue as % of the mean optical density of the negative control tissues."}, "[5]": {"tested_on": "human hair dermal papilla cells (HHDPCs)", "experiment": "Mitogenesis in hair bulb cells, cell viability by MTT after starving", "format": "cell-based", "conditions": "positive control (human insulin), % of negative control", "method": "(§4) The test is carried out on human hair dermal papilla cells (HHDPCs) with fibroblast-like morphology. Cells are cultured in MEM containing 10% FBS and antibiotics.\n(§5) Cells have been seeded in 24 wells plates and allowed to grow for 24 h at 37° C. and 5% CO2. Cells underwent starvation in serum-free medium for 6 hours before treatment.\n(§6) The niosome dispersion was dissolved directly in the medium culture. The test was carried out in three replicates.\n(§7) After 24- and 48-hours exposure the cell viability and the total cellular protein content were assessed on separate plates. Untreated cells were used as negative controls (NC); cells treated with human insulin were used as positive control (PC).\nThe cell viability was assessed by incubating the tissues for 2 hours with MTT (3-[4,5-dimethylthiazol-2-yl]-2,5-diphenyl tetrazolium bromide) solution. The precipitated formazan was then extracted using DMSO and quantified spectrophotometrically. The absorbance at 570 nm (OD570) was measured with a microplate reader (Tecan, Infinite 200 PRO), deducting background at 650 nm (OD650).\nThe cell viability was expressed in percentage terms according to the following formula: […]"}, "[6]": {"tested_on": "IL-1α", "experiment": "In vitro soothing efficacy, SLS-induced IL-1α release by ELISA", "format": "cell-based, human", "conditions": "SLS 0.30% for 70 minutes, then CBD-S5 diluted at 2%, positive control = SLS only", "method": "as §1, §2, §3\nEpidermis was treated for 70 minutes with SLS at 0.30% in order to induce IL-1α synthesis and release. […] As negative control, two epidermis units were treated with phosphate buffer, while epidermis units treated for 70 minutes with SLS 0.30% were used as positive control. Test was carried out in two replicates.\nFor IL-1α assay, the culture medium has been collected at 6 and 24 hours. […] IL-1α was determined in the medium culture of treated and not treated epidermis, using a direct ELISA test (Enzyme-linked immunosorbent assay). […] Samples were read at 450 nm. […]\nCytokine concentration was determined using a standard curve. […]"}, "[7]": {"tested_on": "human hair dermal papilla cells (HHDPCs)", "experiment": "Mitogenesis in hair bulb cells, total cellular protein content (Bradford)", "format": "cell-based", "conditions": "positive control (human insulin), % of negative control", "method": "as §4, §5, §6, §7\nThe total cellular protein content was tested according to Bradford method. Cells at the end of the treatment were washed twice with PBS and lysed by treatment with purified water at 4° C. Dye reagent was added to each sample. […] Reading was made at 595 nm with a colorimeter equipped with a plate-reader.\nTo quantify proteins, a standard plot with albumin was designed and the sample concentrations were determined on the bases of their absorbance values using the interpolation plot formula. Mean values of every set of data were calculated, and for each sample the percentage of increase in the protein synthesis was determined by comparison with the negative control (NC) according to the following formula: […]"}}, "data": [{"compound": "Sodium hyaluronate [Hyaluronic acid (HA)]", "values": [{"measurement": "OD405", "setting": "[1]; 1.25 mg/ml + positive control (anti-human IgE receptor)", "result": 0.879}, {"measurement": "OD405", "setting": "[1]; 1.25 mg/ml, sample alone (spontaneous degranulation)", "result": 0.086}, {"measurement": "% degranulation inhibition", "setting": "[1]; 1.25 mg/ml", "result": 15.7, "unit": "%"}, {"measurement": "OD405", "setting": "[1]; 2.5 mg/ml + positive control (anti-human IgE receptor)", "result": 0.690}, {"measurement": "OD405", "setting": "[1]; 2.5 mg/ml, sample alone (spontaneous degranulation)", "result": 0.084}, {"measurement": "% degranulation inhibition", "setting": "[1]; 2.5 mg/ml", "result": 35.3, "unit": "%"}, {"measurement": "OD405", "setting": "[1]; 5 mg/ml + positive control (anti-human IgE receptor)", "result": 0.527}, {"measurement": "OD405", "setting": "[1]; 5 mg/ml, sample alone (spontaneous degranulation)", "result": 0.077}, {"measurement": "% degranulation inhibition", "setting": "[1]; 5 mg/ml", "result": 52.3, "unit": "%"}, {"measurement": "OD405", "setting": "[1]; 10 mg/ml + positive control (anti-human IgE receptor)", "result": 0.255}, {"measurement": "OD405", "setting": "[1]; 10 mg/ml, sample alone (spontaneous degranulation)", "result": 0.065}, {"measurement": "% degranulation inhibition", "setting": "[1]; 10 mg/ml", "result": 80.6, "unit": "%"}]}, {"compound": "Triton X-100", "values": [{"measurement": "OD405", "setting": "[1]; controls: maximal degranulation by anti-human IgE receptor antibodies, 1% Triton X-100 lysate, negative control 0.068", "result": 1.852}]}, {"compound": "CCCCCCCCCCCCOS(=O)(=O)[O-].[Na+]", "note": "[Positive control (PC), sodium lauryl sulfate]", "values": [{"measurement": "viability at 70 min, 0.3 %", "setting": "[2]", "result": 47.4, "unit": "%"}]}, {"compound": "CCCCCCCCCCCCOS(=O)(=O)[O-].[Na+]", "note": "[PC, sodium dodecyl sulphate]", "values": [{"measurement": "Mean IL-1α release (%)", "setting": "[3]", "result": 235.35, "unit": "%"}, {"measurement": "Mean relative viability (%)", "setting": "[4]", "result": 2.16, "unit": "%"}]}, {"compound": "Positive control: positive control of Example 10: cells treated with human insulin", "values": [{"measurement": "% cell viability (ds)", "setting": "[5]; 24 hours", "result": 136.73, "unit": "%"}, {"measurement": "% cell viability (ds)", "setting": "[5]; 48 hours", "result": "136.72 (8.16) %"}, {"measurement": "IL-1α, 6 hours", "setting": "[6]; culture medium at 6 hours", "result": 105.57, "unit": "pg/mL"}, {"measurement": "IL-1α, 24 hours", "setting": "[6]; culture medium at 24 hours", "result": 597.32, "unit": "pg/mL"}, {"measurement": "% protein synthesis (ds)", "setting": "[7]; 24 hours", "result": 140.65, "unit": "%"}, {"measurement": "% protein synthesis (ds)", "setting": "[7]; 48 hours", "result": "149.65 (10.83) %"}]}]}
